From patent US10172868B2, “Substituted quinazolines for inhibiting kinase activity” (NeuPharma, Inc., priority 2013, dated 2019) come the findings set out here.

The structures appear in SMILES notation.

One test concerns the target EGFR (ErbB1) T790M L858R (Homo sapiens (Human), UniProt P00533, L858R/T790M). Description: Z'-LYTE kinase inhibition assay, EGFR L858R/T790M. The settings on record: for IC50: read-out: IC50 against EGFR L858R/T790M; for inhibition at 0.0137 µM: read-out: % inhibition against EGFR L858R/T790M (Compound at 0.0137 μM). It is filed as biochemical. Summed up:
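IC50 taken from 10-point, 3-fold serial dilutions tested in 1% DMSO. The mutant kinase and peptide were prepared in HEPES pH 6.5 buffer with BRIJ-35, MgCl2, EGTA and NaN3, then reacted with ATP for 1 h at room temperature. Development reagent was added for a further hour before the fluorescence readout.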

A further test has as its target BTK (Homo sapiens (Human), UniProt Q06187). Description: Z'-LYTE kinase inhibition assay, BTK. It is filed as biochemical. The settings on record: for inhibition at 0.041 µM: compound at 0.041 μM, read-out: % inhibition against BTK. The method, then:
Inhibitory activities of compounds against BTK, EGFR and EGFR mutants (EGFR L858R, EGFR T790M, EGFR L858R/T790M), FGFR1, FGFR2, JAK2, JAK3 and KDR were measured by Invitrogen using Z'-LYTE® Method as briefly described in the following.
Test Compounds are screened in 1% DMSO (final) in the well. For 10 point titrations, 3-fold serial dilutions are conducted from the starting concentration. All ATP Solutions are diluted to a 4× working concentration in Kinase Buffer (50 mM HEPES pH 7.5, 0.01% BRIJ-35, 10 mM MgCl2, 1 mM EGTA). Peptide/Kinase Mixtures are diluted to a 2× working concentration in the appropriate Kinase Buffers as described below.
(v) Peptide/Kinase Mixtures for Measurement of BTK:
The 2×BTK/Tyr 01 mixture is prepared in 50 mM HEPES pH 7.5. 0.01% BRIJ-35, 10 mM MgCl2, 1 mM EGTA.
The mixture is then incubated for another 60-minute at room temperature for development reaction. Finally fluorescence is read by plate reader.
To determine IC50 of a compound against EGFR, EGFR mutant and other kinases, a series of concentrations of the compound were tested for the inhibition. […] The scale utilized in Table 4 is as follows: +++ less than 100 nM, ++ 100-500 nM and + greater than 500 nM.

In a further test the test system is A431 cells. Description: cells. The settings on record: Homo sapiens, A-431, 72 h, read-out: IC50 in A431 cells.
The subject of a further test is H1975 cells. Description: Inhibition of cancer cell growth, MTT assay, H1975. The settings on record: Homo sapiens, NCI-H1975, 72 h, read-out: IC50 in H1975 cells. (Tetrazolium dyes change colour on reduction, which living cells bring about.)
In a further test the target is EGFR (ErbB1) (Homo sapiens (Human), UniProt P00533). As to the kind of experiment: Z'-LYTE kinase inhibition assay, EGFR. The settings on record: read-out: % inhibition against EGFR (Compound at 0.041 μM). It is filed as biochemical. The procedure, abridged:
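IC50 values derived from 10-point, 3-fold compound dilution series (1% DMSO final) using Z'-LYTE fluorescence readout after 60-min development. Reaction: EGFR (1.1-5.25 ng) with 2 μM peptide, 60 min at room temperature in HEPES pH 7.5 buffer containing MgCl2, MnCl2, EGTA, DTT and BRIJ-35.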

Sequence of EGFR (ErbB1) T790M L858R (P00533 25-1210 T790M/L858R): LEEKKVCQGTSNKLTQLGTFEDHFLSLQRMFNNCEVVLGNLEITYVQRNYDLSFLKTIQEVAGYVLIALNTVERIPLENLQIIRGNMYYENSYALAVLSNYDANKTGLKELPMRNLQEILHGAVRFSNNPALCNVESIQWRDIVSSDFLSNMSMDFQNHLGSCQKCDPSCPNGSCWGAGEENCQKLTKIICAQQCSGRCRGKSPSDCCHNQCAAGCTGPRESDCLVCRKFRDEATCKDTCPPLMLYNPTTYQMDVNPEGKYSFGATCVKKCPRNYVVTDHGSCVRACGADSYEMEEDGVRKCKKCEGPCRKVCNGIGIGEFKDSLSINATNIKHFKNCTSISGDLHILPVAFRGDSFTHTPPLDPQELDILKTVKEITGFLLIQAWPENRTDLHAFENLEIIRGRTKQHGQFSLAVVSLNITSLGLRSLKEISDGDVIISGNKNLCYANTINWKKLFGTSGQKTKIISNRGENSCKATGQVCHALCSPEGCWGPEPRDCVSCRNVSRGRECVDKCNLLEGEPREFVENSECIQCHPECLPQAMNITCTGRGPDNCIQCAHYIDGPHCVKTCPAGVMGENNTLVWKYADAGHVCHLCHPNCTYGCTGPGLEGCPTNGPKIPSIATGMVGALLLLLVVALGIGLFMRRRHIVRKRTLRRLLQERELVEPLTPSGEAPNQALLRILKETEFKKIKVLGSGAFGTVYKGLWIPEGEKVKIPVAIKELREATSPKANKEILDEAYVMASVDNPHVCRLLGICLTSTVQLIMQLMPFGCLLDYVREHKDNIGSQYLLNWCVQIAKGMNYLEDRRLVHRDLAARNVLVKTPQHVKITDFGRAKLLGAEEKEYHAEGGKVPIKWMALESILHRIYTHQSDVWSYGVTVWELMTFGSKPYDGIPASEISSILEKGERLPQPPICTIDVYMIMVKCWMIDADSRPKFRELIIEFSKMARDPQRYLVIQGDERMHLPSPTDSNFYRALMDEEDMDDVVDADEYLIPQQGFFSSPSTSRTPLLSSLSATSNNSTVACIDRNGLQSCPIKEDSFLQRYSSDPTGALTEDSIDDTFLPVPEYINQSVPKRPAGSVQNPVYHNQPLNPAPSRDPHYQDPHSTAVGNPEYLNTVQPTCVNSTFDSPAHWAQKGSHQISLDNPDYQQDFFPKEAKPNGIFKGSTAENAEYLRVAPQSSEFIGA
Sequence of EGFR (ErbB1) (P00533 25-1210): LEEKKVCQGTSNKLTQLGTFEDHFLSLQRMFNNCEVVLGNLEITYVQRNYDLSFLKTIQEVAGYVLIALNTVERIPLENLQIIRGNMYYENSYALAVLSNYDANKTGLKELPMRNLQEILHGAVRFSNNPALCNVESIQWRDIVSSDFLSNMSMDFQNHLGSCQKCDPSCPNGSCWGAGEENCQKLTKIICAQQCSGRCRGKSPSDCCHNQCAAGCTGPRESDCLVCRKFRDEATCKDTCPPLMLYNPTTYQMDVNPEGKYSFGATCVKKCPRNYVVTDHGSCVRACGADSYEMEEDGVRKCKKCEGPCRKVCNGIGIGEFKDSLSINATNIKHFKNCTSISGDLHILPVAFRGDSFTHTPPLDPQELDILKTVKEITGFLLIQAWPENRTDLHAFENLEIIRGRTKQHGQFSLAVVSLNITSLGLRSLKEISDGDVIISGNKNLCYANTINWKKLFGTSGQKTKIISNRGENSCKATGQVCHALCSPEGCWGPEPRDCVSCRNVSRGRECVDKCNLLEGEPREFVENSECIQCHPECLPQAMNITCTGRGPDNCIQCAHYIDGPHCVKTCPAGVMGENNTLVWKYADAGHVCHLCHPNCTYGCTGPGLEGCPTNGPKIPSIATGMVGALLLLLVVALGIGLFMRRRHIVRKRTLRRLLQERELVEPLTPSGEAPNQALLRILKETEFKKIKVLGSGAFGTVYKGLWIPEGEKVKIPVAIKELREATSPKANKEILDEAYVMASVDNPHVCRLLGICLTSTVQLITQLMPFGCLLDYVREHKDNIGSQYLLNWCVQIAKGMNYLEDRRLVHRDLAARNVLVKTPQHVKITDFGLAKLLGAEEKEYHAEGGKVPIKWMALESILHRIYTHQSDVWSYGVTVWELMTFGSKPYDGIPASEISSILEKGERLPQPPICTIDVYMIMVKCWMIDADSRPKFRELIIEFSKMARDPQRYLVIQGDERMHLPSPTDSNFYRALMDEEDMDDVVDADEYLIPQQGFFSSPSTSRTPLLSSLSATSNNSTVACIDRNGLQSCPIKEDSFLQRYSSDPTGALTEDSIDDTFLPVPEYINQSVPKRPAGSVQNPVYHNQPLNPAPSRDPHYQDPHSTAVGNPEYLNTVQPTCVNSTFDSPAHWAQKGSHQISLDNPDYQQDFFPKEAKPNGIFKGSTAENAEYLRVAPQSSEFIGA
Sequence of BTK (Q06187 whole entry): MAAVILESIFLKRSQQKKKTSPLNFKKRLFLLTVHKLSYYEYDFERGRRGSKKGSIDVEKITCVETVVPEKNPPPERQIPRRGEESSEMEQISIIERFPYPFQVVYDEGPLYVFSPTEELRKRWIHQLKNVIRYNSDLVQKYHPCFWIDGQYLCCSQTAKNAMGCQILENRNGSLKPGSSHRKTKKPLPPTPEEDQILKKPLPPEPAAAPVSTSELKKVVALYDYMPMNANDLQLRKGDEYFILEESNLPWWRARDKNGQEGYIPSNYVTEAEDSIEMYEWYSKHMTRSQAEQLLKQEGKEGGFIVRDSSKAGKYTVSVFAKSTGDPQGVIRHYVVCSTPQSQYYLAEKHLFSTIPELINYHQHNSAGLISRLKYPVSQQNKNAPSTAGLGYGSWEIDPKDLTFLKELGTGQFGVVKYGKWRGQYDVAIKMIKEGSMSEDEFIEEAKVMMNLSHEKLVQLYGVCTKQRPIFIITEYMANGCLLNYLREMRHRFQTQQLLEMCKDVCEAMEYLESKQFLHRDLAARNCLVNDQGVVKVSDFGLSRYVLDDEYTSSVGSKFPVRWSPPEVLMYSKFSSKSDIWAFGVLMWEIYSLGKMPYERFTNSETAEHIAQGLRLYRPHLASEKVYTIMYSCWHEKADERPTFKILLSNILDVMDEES
Method for H1975 cells: Inhibition of cell growth by compounds was measured using MTT assay (Mosmann, T., Journal of Immunological Methods, 1983, 65, 55-63). Tumor cell lines were purchased from ATCC (American Type Culture Collection, Manassas, Va.). All cell lines were maintained in RPMI 1640 (Hyclone) supplemented with 10% fetal bovine serum (FBS, Hyclone), glutamine (2 mM, Hyclone), and antibiotics (penicillin 100 U/mL and streptomycin 50 μg/mL) at 37° C. in a humidified atmosphere of 5% CO2 in air. Taxol (as a positive control. Sigma) and compounds were dissolved in DMSO (Sigma), and the final concentration of DMSO in the medium was 1%. Tumor cells were plated in 96-well plates at densities of about 4000 cells/well of a 96-well plate and allowed to adhere/grow for 24 h. They were then treated with various concentrations of drug for 72 h, 3-(4,5-Dimethylthiazol-2-yl)-2,5-diphenyltetrazolium bromide (MTT, Sigma) was used to determine the number of viable cells at the time of compound addition and the number of cells remaining after 72 h compound exposure. The number of cells remaining after 72 h was compared to the number of viable cells at the time of compound addition by measuring the absorbance at 570 nm, allowing for the calculation of growth inhibition.
All concentrations of compounds were tested in triplicate and controls were averaged over 4 wells. IC50 was calculated by plotting the concentration of compound vs the percentage of inhibition in treated wells using GraphPad Prism 5.

As to `C=CC(=O)Nc1cccc(-c2cccc3cnc(Nc4ccc(OCCO)cc4)nc23)c1` [Example C108, N-(3-(2-((4-(2-hydroxyethoxy)phenyl)amino)quinazolin-8-yl)phenyl)acrylamide], the IC50 was less than 0.1 µM at EGFR (ErbB1) T790M L858R, less than 0.1 µM at BTK (read-out: IC50 against BTK), more than 0.5 µM in the test on A431 cells and less than 0.1 µM in the test with H1975 cells.

For `C=CC(=O)Nc1cccc(-c2cccc3cnc(Nc4ccc(OCCN5CCC5)cc4)nc23)c1` [Example C109, N-(3-(2-((4-(2-(azetidin-1-yl)ethoxy)phenyl)amino)quinazolin-8-yl)phenyl)acrylamide], the inhibition at 0.041 µM at EGFR (ErbB1) was less than 50%; at BTK, more than 50%. In addition, the inhibition at 0.0137 µM on EGFR (ErbB1) T790M L858R is more than 50%. Besides, the IC50 at EGFR (ErbB1) T790M L858R was less than 0.1 µM; in the test with A431 cells it was 0.1 to 0.5 µM; in the test with H1975 cells it was less than 0.1 µM.

As for `C=CC(=O)Nc1cccc(-c2cccc3cnc(Nc4ccc(NC5CCOCC5)cc4)nc23)c1` [Example C111, N-(3-(2-((4-((tetrahydro-2H-pyran-4-yl)amino)phenyl)amino)quinazolin-8-yl)phenyl)acrylamide], the inhibition at 0.041 µM was less than 50% on EGFR (ErbB1) and more than 50% on BTK. In addition, the inhibition at 0.0137 µM at EGFR (ErbB1) T790M L858R is less than 50%. Besides, in the test with H1975 cells, the IC50 was less than 0.1 µM.

Consider `C=CC(=O)Nc1cccc(-c2cccc3cnc(Nc4ccc(OC5CCOCC5)cc4)nc23)c1` [Example C112, N-(3-(2-((4-((tetrahydro-2H-pyran-4-yl)oxy)phenyl)amino)quinazolin-8-yl)phenyl)acrylamide], for which the inhibition at 0.041 µM on EGFR (ErbB1) is less than 50%; on BTK, more than 50%. Further, the inhibition at 0.0137 µM at EGFR (ErbB1) T790M L858R is less than 50%. The IC50 in the test on H1975 cells was less than 0.1 µM.

Turning to `C=CC(=O)Nc1cccc(-c2cccc3cnc(Nc4ccc(O[C@H]5CCOC5)cc4)nc23)c1` [Example C113, (S)-N-(3-(2-((4-((tetrahydrofuran-3-yl)oxy)phenyl)amino)quinazolin-8-yl)phenyl)acrylamide], the inhibition at 0.041 µM at EGFR (ErbB1) is less than 50%; on BTK it was more than 50%. The inhibition at 0.0137 µM at EGFR (ErbB1) T790M L858R was less than 50%. For the same molecule, the IC50 in the test with H1975 cells was less than 0.1 µM.

In the case of `C=CC(=O)Nc1cccc(-c2cccc3cnc(Nc4ccc(N[C@H]5CCOC5)cc4)nc23)c1` [Example C114, (S)-N-(3-(2-((4-((tetrahydrofuran-3-yl)amino)phenyl)amino)quinazolin-8-yl)phenyl)acrylamide], the inhibition at 0.041 µM on EGFR (ErbB1) is less than 50%; at BTK it was more than 50%. Besides, the inhibition at 0.0137 µM at EGFR (ErbB1) T790M L858R was less than 50%. In addition, the IC50 with H1975 cells is less than 0.1 µM.

For `C=CC(=O)Nc1cccc(-c2cccc3cnc(Nc4ccc(N[C@@H]5CCOC5)cc4)nc23)c1` [Example C115, (R)-N-(3-(2-((4-((tetrahydrofuran-3-yl)amino)phenyl)amino)quinazolin-8-yl)phenyl)acrylamide], the results for the inhibition at 0.041 µM at EGFR (ErbB1) and on BTK were less than 50% and more than 50%, respectively. Further, the inhibition at 0.0137 µM at EGFR (ErbB1) T790M L858R is less than 50%. Further, the IC50 in the test on H1975 cells was in the range of 0.1 to 0.5 µM.

As to `C=CC(=O)Nc1cccc(-c2cccc3cnc(Nc4ccc(N5CCN(C)C(=O)C5)cc4)nc23)c1` [Example C116, N-(3-(2-((4-(4-methyl-3-oxopiperazin-1-yl)phenyl)amino)quinazolin-8-yl)phenyl)acrylamide], the inhibition at 0.041 µM on EGFR (ErbB1) is less than 50%; at BTK it was more than 50%. For the same molecule, at EGFR (ErbB1) T790M L858R, the inhibition at 0.0137 µM is less than 50%. Further, in the test on H1975 cells, the IC50 was 0.1 to 0.5 µM.

For `C=CC(=O)Nc1cccc(-c2cccc3cnc(Nc4ccc(N5CCNC(=O)C5)cc4)nc23)c1` [Example C117, N-(3-(2-((4-(3-oxopiperazin-1-yl)phenyl)amino)quinazolin-8-yl)phenyl)acrylamide], the inhibition at 0.041 µM at EGFR (ErbB1) was less than 50%; at BTK it was more than 50%. Besides, at EGFR (ErbB1) T790M L858R, the inhibition at 0.0137 µM is less than 50%. Also, the IC50 in the test on H1975 cells fell in the range of 0.1 to 0.5 µM.

Regarding `C=CC(=O)Nc1cccc(-c2cccc3cnc(Nc4ccc(O[C@@H]5CCOC5)cc4)nc23)c1` [Example C119, (R)-N-(3-(2-((4-((tetrahydrofuran-3-yl)oxy)phenyl)amino)quinazolin-8-yl)phenyl)acrylamide], the figures for the inhibition at 0.041 µM at EGFR (ErbB1) and on BTK were less than 50% and more than 50%, respectively. For the same molecule, at EGFR (ErbB1) T790M L858R, the inhibition at 0.0137 µM is less than 50%. In addition, in the test on H1975 cells, the IC50 is less than 0.1 µM.

For `C=CC(=O)Nc1cccc(-c2cccc3cnc(Nc4ccc(NC5CCN(C(C)=O)CC5)cc4)nc23)c1` [Example C120, N-(3-(2-((4-((1-acetylpiperidin-4-yl)amino)phenyl)amino)quinazolin-8-yl)phenyl)acrylamide], the inhibition at 0.041 µM on EGFR (ErbB1) was less than 50%; on BTK it was more than 50%. Moreover, on EGFR (ErbB1) T790M L858R, the inhibition at 0.0137 µM was less than 50%. In the test with H1975 cells, the IC50 was less than 0.1 µM.

Take `C=CC(=O)Nc1cccc(-c2cccc3cnc(Nc4ccc(OC5CN(C(C)=O)C5)cc4)nc23)c1` [Example C122, N-(3-(2-((4-((1-acetylazetidin-3-yl)oxy)phenyl)amino)quinazolin-8-yl)phenyl)acrylamide]: the inhibition at 0.041 µM is less than 50% on EGFR (ErbB1) and more than 50% at BTK. Further, the inhibition at 0.0137 µM on EGFR (ErbB1) T790M L858R was less than 50%. For the same molecule, in the test with H1975 cells, the IC50 was less than 0.1 µM.

In the case of `C=CC(=O)Nc1cccc(-c2cccc3cnc(Nc4ccc(NC5CN(C(C)=O)C5)cc4)nc23)c1` [Example C124, N-(3-(2-((4-((1-acetylazetidin-3-yl)amino)phenyl)amino)quinazolin-8-yl)phenyl)acrylamide], the inhibition at 0.041 µM on EGFR (ErbB1) was less than 50%; at BTK, more than 50%. The inhibition at 0.0137 µM at EGFR (ErbB1) T790M L858R was less than 50%. For the same molecule, the IC50 in the test with H1975 cells is less than 0.1 µM.

Consider `C=CC(=O)Nc1cccc(-c2cccc3cnc(Nc4ccc(OC5CCN(C(C)=O)CC5)cc4)nc23)c1` [Example C125, N-(3-(2-((4-((1-acetylpiperidin-4-yl)oxy)phenyl)amino)quinazolin-8-yl)phenyl)acrylamide], for which the inhibition at 0.041 µM on EGFR (ErbB1) was less than 50%; at BTK, more than 50%. The inhibition at 0.0137 µM at EGFR (ErbB1) T790M L858R was less than 50%. For the same molecule, the IC50 in the test with H1975 cells is less than 0.1 µM.

On to `C=CC(=O)Nc1cccc(-c2cccc3cnc(Nc4ccc(N[C@@H]5CCN(C)C5)cc4)nc23)c1` [Example C129, (R)-N-(3-(2-((4-((1-methylpyrrolidin-3-yl)amino)phenyl)amino)quinazolin-8-yl)phenyl)acrylamide], for which the inhibition at 0.041 µM on EGFR (ErbB1) was more than 50%. Further, the inhibition at 0.0137 µM on EGFR (ErbB1) T790M L858R is more than 50%. The IC50 on EGFR (ErbB1) T790M L858R, in the test on A431 cells and in the test on H1975 cells was less than 0.1 µM throughout.

Regarding `C=CC(=O)Nc1cccc(-c2cccc3cnc(Nc4ccc(OC5CCN(CCF)CC5)cc4)nc23)c1` [Example C136, N-(3-(2-((4-((1-(2-fluoroethyl)piperidin-4-yl)oxy)phenyl)amino)quinazolin-8-yl)phenyl)acrylamide], the inhibition at 0.041 µM on EGFR (ErbB1) is less than 50%. Further, the inhibition at 0.0137 µM on EGFR (ErbB1) T790M L858R is more than 50%. Also, the IC50 in the test with A431 cells and in the test on H1975 cells was less than 0.1 µM each time.

For `C=CC(=O)Nc1cccc(-c2cccc3cnc(Nc4ccc(NC5CCN(CCF)CC5)cc4)nc23)c1` [Example C138, N-(3-(2-((4-((1-(2-fluoroethyl)piperidin-4-yl)amino)phenyl)amino)quinazolin-8-yl)phenyl)acrylamide], the inhibition at 0.041 µM on EGFR (ErbB1) was more than 50%. The inhibition at 0.0137 µM on EGFR (ErbB1) T790M L858R is more than 50%. The IC50 at EGFR (ErbB1) T790M L858R is less than 0.1 µM; in the test on A431 cells, 0.1 to 0.5 µM; with H1975 cells, less than 0.1 µM.
